Experiments:
ST3GAL3 = target: T1, ST3GAL3 (Homo sapiens, UniProt Q11203); assay: phosphatase-coupled sialyltransferase activity assay (EA002 kit) with recombinant enzyme; assay type: biochemical
T1 construct: recombinant Human ST3GAL3 (R&D systems #10554-GT)
T1 sequence (Q11203 1-375): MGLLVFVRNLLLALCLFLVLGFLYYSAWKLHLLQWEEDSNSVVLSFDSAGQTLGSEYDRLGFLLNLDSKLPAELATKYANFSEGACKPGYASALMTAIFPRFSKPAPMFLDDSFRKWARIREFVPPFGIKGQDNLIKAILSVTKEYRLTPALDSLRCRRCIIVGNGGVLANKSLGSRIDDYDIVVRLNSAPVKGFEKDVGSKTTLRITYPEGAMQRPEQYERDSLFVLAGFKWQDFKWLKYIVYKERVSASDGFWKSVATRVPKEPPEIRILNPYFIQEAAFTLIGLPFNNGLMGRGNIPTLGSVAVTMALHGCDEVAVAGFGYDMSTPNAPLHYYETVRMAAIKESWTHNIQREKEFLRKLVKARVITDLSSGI

ST6GAL1 = target: T2, ST6GAL1 (Homo sapiens, UniProt P15907); assay: HPLC assay of sialylation of Galβ[…]-4GlcNAc with CMP-Neu5Ac by recombinant enzyme; assay type: biochemical
T2 construct: recombinant Human ST6GAL1 (R&D systems #7620-GT)
T2 sequence (P15907 27-406): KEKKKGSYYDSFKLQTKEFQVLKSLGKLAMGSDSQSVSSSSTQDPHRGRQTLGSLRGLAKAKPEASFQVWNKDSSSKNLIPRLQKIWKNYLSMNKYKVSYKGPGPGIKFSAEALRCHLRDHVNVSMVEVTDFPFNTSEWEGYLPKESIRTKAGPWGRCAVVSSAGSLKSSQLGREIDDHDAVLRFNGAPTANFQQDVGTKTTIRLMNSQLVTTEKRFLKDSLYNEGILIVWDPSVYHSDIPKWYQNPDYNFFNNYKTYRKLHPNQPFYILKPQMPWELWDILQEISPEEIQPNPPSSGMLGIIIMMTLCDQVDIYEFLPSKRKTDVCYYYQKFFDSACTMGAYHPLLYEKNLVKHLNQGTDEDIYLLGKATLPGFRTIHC

IC50 (ST3GAL3): 9.45 ± 0.11 µM
IC50 (ST6GAL1): 7.76 ± 0.06 µM
SMILES: C[C@H](CCC(=O)OCCOCCOCCN=[N+]=[N-])C1CCC2C3CC[C@@H]4C[C@H](NC(=O)[C@H](CC(=O)O)Nc5ccc([N+](=O)[O-])c6nonc56)CC[C@]4(C)C3CC[C@@]21C (some centres unmarked) [FCW393]

Reference: paper PMC11050067, “Development of a Novel, Potent, and Selective Sialyltransferase Inhibitor for Suppressing Cancer Metastasis” (International Journal of Molecular Sciences, 2024)
